This test relates to Mouse serum IGF-1. The experiment in a line: Serum IGF-I radioimmunoassay in CT-26 tumor-bearing mice. Type of test: in vivo, BALB/c mice. To be noted: serum collected at sacrifice (day 24); Pegvisomant 5.0 mg/day s.c.; Irinotecan 100 mg/kg on post-inoculation days 7, 14, 21.

Counter-ions that a name gives are not always drawn.

Description: CT-26 cells (mouse colon carcinoma) are grown in DMEM with 10% fetal bovine serum until the cells are approximately 50% confluent. Trypsin is used to lift adherent cells from the surface of tissue culture flask. The cells are then washed and suspended in Hank's buffered saline solution. BALB/c mice (Jackson Laboratories, Bar Harbor, Me.), 5-8 weeks of age, are used in this example. Initially, the spleen is mobilized using a left flank incision. Direct splenic injections of CT-26 cells is performed (1×10^4 viable cells, 0.05 ml total volume). Wound clips are used to close the incision. This is a syngenic colon cancer model so the host animals are not immunocompromised.
Injections are administered on the flank opposite the side of the wound clips from the splenic injection using a 25-gauge needle on a tuberculin syringe.
Mice are sacrificed on day 24. […] Treatment groups are compared using a standard t-test.
Mouse serum IGF-1 is measured by radioimmunoassay (RIA) after acid-ethanol extraction. Briefly, the serum/extraction mixture is incubated at room temperature for 2 hours, centrifuged, and the supernatant is diluted 1:200 for analysis. IGF-I concentrations are the measured by RIA using a polyclonal rabbit antibody (Nicohls Institute, San Juan Capistrano, Calif.). The assay standards are created with recombinant human IGF-I (Amersham International, Bucks, UK).

On to `CCc1c2c(nc3ccc(OC(=O)N4CCC(N5CCCCC5)CC4)cc13)-c1cc3c(c(=O)n1C2)COC(=O)[C@]3(O)CC` [Irinotecan, (4S)-4,11-diethyl-4-hydroxy-9-((4-piperidinopiperidino)carbonyloxy)-1H-pyrano (3′,4′:6,7)indolizino(1,2-b)quinoline-3,14(4H,12H) dione hydrochloride], for which the serum IGF-I concentration (mean ± standard error) was 129 ± 5.9 µg/L. In turn, Pegvisomant gave a serum IGF-I concentration (mean ± standard error) of 50 ± 5.3 µg/L.
